Results published in patent publication US11999758B2, “Inhibitors of the YAP/TAZ-TEAD interaction and their use in the treatment of cancer” (INVENTIVA, priority 2018, dated 2024).

Molecular target: T1, YAP-TEAD interaction (Homo sapiens, UniProt P28347)
T1 construct: expressed in transfected cells; host or cells: HEK293 GripTite 293 MSR (Invitrogen R795-07)
Experiment: Cell-based TEAD-GAL4 transactivation assay (luciferase reporter)
Conditions: HEK293 cells transfected with TEAD1-Gal4, YAP mutant (S127A, S397A) and luciferase reporter, compounds 0.1 μM to 30 μM; for Emax: HEK293, 24 h, read-out: TEAD-GAL4 Transactivation activity Max Act; for IC50: 24 h
Method: To identify inhibitors of YAP-TEAD interaction, a transient transactivation assay was carried out on HEK293 cell line (HEK293 GripTite™ 293 MSR (Invitrogen R795-07)) using plasmids containing the full length TEAD1 sequences, the full length YAP mutant (S127A, S397A) and a luciferase gene reporter. All expression constructs were performed into a pSG5 backbone plasmid in which the SV40 promoter was replaced by the CMV promoter. The TEAD1 construct was prepared by cloning the full-length human TEAD1 cDNA in fusion with the Gal4 DNA Binding Domain (AA 1-148) into pSG5_CMV to create the TEAD1 (FL)_hum_pSG5Gal4_CMV. The full-length YAP mutant (S127A, S397A) was also cloned into pSG5_CMV to create the YAP (FL)_hum_pSG5_mutS127A_S397A_CMV. The reporter plasmid GAL4(5×RE)_TK(−105/+56)_pGL3-Basic contains 5 copies of the GAL4 responsive element (5′-TCGGAGGACAGTACTCC-3′) upstream of the thymidine kinase (TK) promoter (−105/+56) inserted in a pGL3-Basic vector. To evaluate the selectivity of our compounds in blocking the YAP-TEAD interaction, a counter-screening protein-protein interaction transactivation assay was also established. Briefly, two other expression plasmids, the pBD-P53 which expresses the P53 (AA 72-390) in fusion with Gal4 and the pAD-SV40T which expresses the SV40 large T antigen (AA 84-708,AgT), were created. HEK293 cells were seeded at 5×10^4 cells/well in 96 well plates (assay plates) in DMEM medium containing 4.5 g/L D-glucose, 10% high inactivated (HI) fetal bovine serum 1% Glutamax, 1% non-essential amino acid and 1% sodium pyruvate and 0.5% penicillin/streptomycin at 37° C. in a humidified atmosphere of 8% CO2. After 24 h, transfections were performed using Jet-PEI as transfectant (101B-010 Polyplus Transfection), according to the instructions of the manufacturer (N/P=10) and a ratio YAP/TEAD=10 (per well: 50 ng of YAP(FL), 5 ng of TEAD(FL) and 50 ng of reporter plasmid). Six hours after cell transfection, the plates (‘assay plate’) were washed with 100 μl PBS per well and cells were treated with compounds in semi-log from 0.1 μM to 30 μM or DMSO 0.5% as control in DMEM, 4.5 g/L D-Glucose without phenol red, 0.3% BSA, 1% glutamax, 1% NEAA, 1% sodium pyruvate. 24 h later, the luciferase activity was determined after addition of 100 μl of Steady Glo™ luciferase assay system (Promega E2550) according to the manufacturer's directions. Luciferase activity in cell extracts was measured by reading luminescence using the Envision device.
The cellular response was determined by fitting the concentration response curves using a 3-parameter curve fit equation and determining the concentration that inhibited the luciferase activity by 50%.

T1 sequence (P28347 whole entry): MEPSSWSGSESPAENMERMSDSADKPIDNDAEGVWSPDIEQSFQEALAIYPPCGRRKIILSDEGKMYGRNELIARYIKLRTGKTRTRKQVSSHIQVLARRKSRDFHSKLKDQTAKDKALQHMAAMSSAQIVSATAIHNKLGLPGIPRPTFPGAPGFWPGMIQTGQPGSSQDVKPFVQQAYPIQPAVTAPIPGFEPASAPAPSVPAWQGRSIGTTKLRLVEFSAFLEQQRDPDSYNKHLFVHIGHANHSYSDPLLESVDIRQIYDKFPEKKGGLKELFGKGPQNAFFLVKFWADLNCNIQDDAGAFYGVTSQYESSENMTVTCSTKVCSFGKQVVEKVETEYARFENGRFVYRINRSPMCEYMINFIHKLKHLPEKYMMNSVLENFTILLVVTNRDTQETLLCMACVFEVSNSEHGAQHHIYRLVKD

Emax | IC50 | Compound
79% | 1740 nM | CCN(/N=C/c1ccc2c(c1)COB2O)c1ncnc2c(C(=O)NC3COC3)csc12 [Ex115, 4-[ethyl-[(E)-(1-hydroxy-3H-2,1-benzoxaborol-5-yl)methyleneamino]amino]-N-(oxetan-3-yl)thieno[3,2-d]pyrimidine-7-carboxamide]
84% | 2630 nM | COc1cc(/C=N/N(CC(C)C)c2nc(C)nc3ccsc23)ccc1B(O)O [Ex68, [4-[(E)-[isobutyl-(2-methylthieno[3,2-d]pyrimidin-4-yl)hydrazono]methyl]-2-methoxy-phenyl]boronic acid]
78% | 3410 nM | CN(/N=C/c1ccc2c(c1)COB2O)C1=NS(=O)(=O)c2ccccc21 [Ex 26, N-[(E)-(1-hydroxy-3H-2,1-benzoxaborol-5-yl)methyleneamino]-N-methyl-1,1-dioxo-1,2-benzothiazol-3-amine]
60% |  | Cc1ccc2c(c1)C(N(C)/N=C/c1ccc3c(c1)COB3O)=NS2(=O)=O [Ex 36, N-[(E)-(1-hydroxy-3H-2,1-benzoxaborol-5-yl)methyleneamino]-N,5-dimethyl-1,1-dioxo-1,2-benzothiazol-3-amine]
98% | 2330 nM | COCCOc1ccc2c(c1)C(N(CC(C)C)/N=C/c1ccc(B(O)O)c(OC)c1)=NS2(=O)=O [Ex 9, [4-[(E)-[isobutyl-[5-(2-methoxyethoxy)-1,1-dioxo-1,2-benzothiazol-3-yl]hydrazono]methyl]-2-methoxy-phenyl]boronic acid]
87% | 6630 nM | COc1cc(/C=N/N(CC(C)C)C2=NS(=O)(=O)c3ccccc32)ccc1B1OC(=O)CN(C)CC(=O)O1 [Ex 61, 2-[4-[(E)-[(1,1-dioxo-1,2-benzothiazol-3-yl)-isobutyl-hydrazono]methyl]-2-methoxy-phenyl]-6-methyl-1,3,6,2-dioxazaborocane-4,8-dione]
83% | 1060 nM | CN1CCc2c1ncnc2N(C)/N=C/c1ccc2c(c1)COB2O [Ex106, N-[(E)-(1-hydroxy-3H-2,1-benzoxaborol-5-yl)methyleneamino]-N,7-dimethyl-5,6-dihydropyrrolo[2,3-d]pyrimidin-4-amine]
88% | 3110 nM | CC(C)CN(/N=C/c1ccc2c(c1)COB2O)C1=NS(=O)(=O)c2ccccc21 [Ex 23, N-[(E)-(1-hydroxy-3H-2,1-benzoxaborol-5-yl)methyleneamino]-N-isobutyl-1,1-dioxo-1,2-benzothiazol-3-amine]
58% | 990 nM | CCN(/N=C/c1ccc(B(O)O)c(OC)c1)c1ncnc2c(C)csc12 [Ex62, [4-[(E)-[ethyl-(7-methylthieno[3,2-d]pyrimidin-4-yl)hydrazono]methyl]-2-methoxy-phenyl]boronic acid]
87% | 1990 nM | CN(/N=C/c1ccc2c(c1)COB2O)c1ncnc2c(-c3ccccc3)csc12 [Ex102, N-[(E)-(1-hydroxy-3H-2,1-benzoxaborol-5-yl)methyleneamino]-N-methyl-7-phenyl-thieno[3,2-d]pyrimidin-4-amine]
70% | 5210 nM | CCN(/N=C/c1ccc2c(c1)COB2O)c1ncnc2c(C(=O)N(C)C)csc12 [Ex113, 4-[ethyl-[(E)-(1-hydroxy-3H-2,1-benzoxaborol-5-yl)methyleneamino]-amino]-N,N-dimethyl-thieno[3,2-d]pyrimidine-7-carboxamide]
85% | 690 nM | CCN(/N=C/c1ccc2c(c1)COB2O)c1ncnc2sccc12 [Ex 40, N-ethyl-N-[(E)-(1-hydroxy-3H-2,1-benzoxaborol-5-yl)methyleneamino]-thieno[2,3-d]pyrimidin-4-amine]
77% |  | COc1cc(/C=N/N(CC(C)C)C2=NS(=O)(=O)c3ccccc32)cc2c1B(O)OC2 [Ex 48, N-[(E)-(1-hydroxy-7-methoxy-3H-2,1-benzoxaborol-5-yl)methyleneamino]-N-isobutyl-1,1-dioxo-1,2-benzothiazol-3-amine]
86% | 4000 nM | COc1cccc2c(N(C)/N=C/c3ccc4c(c3)COB4O)ncnc12 [Ex 33, N-[(E)-(1-hydroxy-3H-2,1-benzoxaborol-5-yl)methyleneamino]-8-methoxy-N-methyl-quinazolin-4-amine]
82% | 590 nM | CCN(/N=C/c1ccc2c(c1)COB2O)c1ncnc2ncsc12 [Ex87, N-ethyl-N-[(E)-(1-hydroxy-3H-2,1-benzoxaborol-5-yl)methyleneamino]-thiazolo[4,5-d]pyrimidin-7-amine]
87% | 3040 nM | CC1CCC(c2ccc3c(c2)COB3O)=NN1C1=NS(=O)(=O)c2ccccc21 (stereo not shown) [Ex 53, 3-[6-(1-hydroxy-3H-2,1-benzoxaborol-5-yl)-3-methyl-4,5-dihydro-3H-pyridazin-2-yl]-1,2-benzothiazole 1,1-dioxide]
85% | 820 nM | CCN(/N=C/c1ccc2c(c1)COB2O)c1ncnc2cc(F)ccc12 [Ex89, N-ethyl-7-fluoro-N-[(E)-(1-hydroxy-3H-2,1-benzoxaborol-5-yl)-methyleneamino]quinazolin-4-amine]
81% | 5130 nM | CC1OB(O)c2ccc(/C=N/N(C)C3=NS(=O)(=O)c4ccccc43)cc21 (stereo not shown) [Ex 50, N-[(E)-(1-hydroxy-3-methyl-3H-2,1-benzoxaborol-5-yl)methyleneamino]-N-methyl-1,1-dioxo-1,2-benzothiazol-3-amine]
76% | 2350 nM | COc1cc(OC)c2c(c1)C(N1N=C(c3ccc(B(O)O)c(OC)c3)CCC1C)=NS2(=O)=O (stereo not shown) [Ex 54, [4-[2-(5,7-dimethoxy-1,1-dioxo-1,2-benzothiazol-3-yl)-3-methyl-4,5-dihydro-3H-pyridazin-6-yl]-2-methoxy-phenyl]boronic acid]
79% | 1750 nM | CCN(/N=C/c1ccc2c(c1)COB2O)c1ncnc2cc[nH]c12 [Ex81, N-ethyl-N-[(E)-(1-hydroxy-3H-2,1-benzoxaborol-5-yl)methyleneamino]-5H-pyrrolo[3,2-d]pyrimidin-4-amine]
91% |  | Cc1ccc2c(c1)C(N(CC(C)C)/N=C/c1ccc3c(c1)COB3O)=NS2(=O)=O [Ex 29, N-[(E)-(1-hydroxy-3H-2,1-benzoxaborol-5-yl)methyleneamino]-N-isobutyl-5-methyl-1,1-dioxo-1,2-benzothiazol-3-amine]
73% |  | CC(C)CN(/N=C/c1ccc2c(c1)CCCOB2O)C1=NS(=O)(=O)c2ccccc21 [Ex 47, N-[(E)-(1-hydroxy-4,5-dihydro-3H-2,1-benzoxaborepin-7-yl)methyleneamino]-N-isobutyl-1,1-dioxo-1,2-benzothiazol-3-amine]
85% |  | COCCOc1cc(/C=N/N(CC(C)C)C2=NS(=O)(=O)c3ccccc32)ccc1B(O)O [Ex 11, [4-[(E)-[(1,1-dioxo-1,2-benzothiazol-3-yl)-isobutyl-hydrazono]methyl]-2-(2-methoxyethoxy)phenyl]boronic acid]
83% | 1260 nM | CCN(/N=C/c1ccc2c(c1)COB2O)c1ncnc2cc(C)sc12 [Ex90, N-ethyl-N-[(E)-(1-hydroxy-3H-2,1-benzoxaborol-5-yl)methyleneamino]-6-methyl-thieno[3,2-d]pyrimidin-4-amine]
87% | 2150 nM | CCN(/N=C/c1ccc(B(O)O)c(OC)c1)c1ncnc2c1ccn2C [Ex66, [4-[(E)-[ethyl-(7-methylpyrrolo[2,3-d]pyrimidin-4-yl)hydrazono]methyl]-2-methoxy-phenyl]boronic acid]
96% | 2760 nM | CCN(/N=C/c1ccc(B(O)O)c(OC)c1)c1ncnc2ncsc12 [Ex64, [4-[(E)-[ethyl(thiazolo[4,5-d]pyrimidin-7-yl)hydrazono]methyl]-2-methoxy-phenyl]boronic acid]
92% | 1980 nM | CCN(/N=C/c1ccc(B(O)O)c(OC)c1)c1ncnc2occc12 [Ex65, [4-[(E)-[ethyl(furo[2,3-d]pyrimidin-4-yl)hydrazono]methyl]-2-methoxy-phenyl]boronic acid]
